Experimental data published in patent publication US20100267561A1, “HERBICIDAL PYRIDAZINONE DERIVATIVES” (priority 2007, published 2010).

Assays:
Type in all cases: in vivo
[1] = test system: barnyardgrass (Echinochloa crus-galli); assay: Test B flooded paddy test plant response
In short: (§1)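 Paddy-water application to 2-leaf plants in pots held under 3 cm of flooding; response is a 0–100 visual control rating against controls after 13 to 15 days, and a dash marks a missing result.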

[2] = test system: ducksalad (Heteranthera limosa); assay: Test B flooded paddy test plant response
In short: as §1

[3] = test system: umbrella sedge (Cyperus difformis); assay: Test B flooded paddy test plant response
In short: as §1

[4] = test system: Italian ryegrass (Lolium multiflorum); assay: Test C pre-/postemergence plant response; conditions: Preemergence
In short: (§2)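 Pre/post spray; solvent blend non-phytotoxic, with surfactant; post stage 1–4 leaves (2–18 cm); controlled environment 15–25 d; visual score 0–100 relative to controls, 100 = complete control.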

[5] = test system: annual bluegrass (Poa annua); assay: Test C pre-/postemergence plant response; conditions: Preemergence
In short: as §2

[6] = test system: blackgrass (Alopecurus myosuroides); assay: Test C pre-/postemergence plant response; conditions: Preemergence
In short: as §2

[7] = test system: canarygrass (Phalaris minor); assay: Test C pre-/postemergence plant response; conditions: Preemergence
In short: as §2

[8] = test system: downy bromegrass (Bromus tectorum); assay: Test C pre-/postemergence plant response; conditions: Preemergence
In short: as §2

[9] = test system: green foxtail (Setaria viridis); assay: Test C pre-/postemergence plant response; conditions: Preemergence
In short: as §2

[10] = test system: pigweed (Amaranthus retroflexus); assay: Test C pre-/postemergence plant response; conditions: Preemergence
In short: as §2

[11] = test system: spring barley (Hordeum vulgare); assay: Test C pre-/postemergence plant response; conditions: Preemergence
In short: as §2

[12] = test system: spring wheat (Triticum aestivum); assay: Test C pre-/postemergence plant response; conditions: Preemergence
In short: as §2

[13] = test system: wild mustard (Sinapis arvensis); assay: Test C pre-/postemergence plant response; conditions: Preemergence
In short: as §2

wild oat (Avena fatua) = assay: Test C pre-/postemergence plant response; conditions: Preemergence
In short: as §2

[14] = test system: windgrass (Apera spica-venti); assay: Test C pre-/postemergence plant response; conditions: Preemergence
In short: as §2

[15] = test system: winter wheat (Triticum aestivum); assay: Test C pre-/postemergence plant response; conditions: Preemergence
In short: as §2

[16] = Flood (flooded paddy test), 62 g ai/ha, scale 0 to 100, 0 no effect, 100 complete control
[17] = Flood (flooded paddy test), 125 g ai/ha, scale 0 to 100, 0 no effect, 100 complete control
[18] = Flood, 31 g ai/ha, scale 0 to 100
[19] = 8 g ai/ha, scale 0 to 100 (0 no effect, 100 complete control)
[20] = 16 g ai/ha, scale 0 to 100 (0 no effect, 100 complete control)
[21] = 31 g ai/ha, scale 0 to 100 (0 no effect, 100 complete control)
[22] = 62 g ai/ha, scale 0 to 100, 0 no effect, 100 complete control

Cc1cc(-c2ccc(Cl)cc2)nn1-c1c(OS(=O)(=O)c2ccccc2)cnn(C)c1=O [Compound 35]
Plant response rating, Barnyardgrass [1, 16]: 0 | Plant response rating, Barnyardgrass [1, 17]: 0 | Plant response rating, Barnyardgrass [1, 18]: 0 | Plant response rating, Ducksalad [2, 16]: 0 | Plant response rating, Ducksalad [2, 17]: 0 | Plant response rating, Ducksalad [2, 18]: 0 | Plant response rating, Sedge, Umbrella [3, 16]: 0 | Plant response rating, Sedge, Umbrella [3, 17]: 0 | Plant response rating, Sedge, Umbrella [3, 18]: 0 | Plant response rating, Ryegrass, Italian [4, 19]: 0 | Plant response rating, Ryegrass, Italian [4, 20]: 35 | Plant response rating, Ryegrass, Italian [4, 21]: 98 | Plant response rating, Ryegrass, Italian [4, 22]: 100 | Plant response rating, Bluegrass [5, 19]: 0 | Plant response rating, Bluegrass [5, 20]: 0 | Plant response rating, Bluegrass [5, 21]: 0 | Plant response rating, Bluegrass [5, 22]: 0 | Plant response rating, Blackgrass [6, 19]: 0 | Plant response rating, Blackgrass [6, 20]: 30 | Plant response rating, Blackgrass [6, 21]: 75 | Plant response rating, Blackgrass [6, 22]: 75 | Plant response rating, Canarygrass [7, 19]: 0 | Plant response rating, Canarygrass [7, 20]: 0 | Plant response rating, Canarygrass [7, 21]: 50 | Plant response rating, Canarygrass [7, 22]: 90 | Plant response rating, Bromegrass, Downy [8, 19]: 0 | Plant response rating, Bromegrass, Downy [8, 20]: 0 | Plant response rating, Bromegrass, Downy [8, 21]: 50 | Plant response rating, Bromegrass, Downy [8, 22]: 60 | Plant response rating, Foxtail, Green [9, 19]: 15 | Plant response rating, Foxtail, Green [9, 21]: 40 | Plant response rating, Foxtail, Green [9, 22]: 100 | Plant response rating, Pigweed [10, 19]: 0 | Plant response rating, Pigweed [10, 21]: 0 | Plant response rating, Pigweed [10, 22]: 0 | Plant response rating, Barley, Spring [11, 19]: 0 | Plant response rating, Barley, Spring [11, 20]: 0 | Plant response rating, Barley, Spring [11, 21]: 20 | Plant response rating, Barley, Spring [11, 22]: 65 | Plant response rating, Wheat, Spring [12, 19]: 0 | Plant response rating, Wheat, Spring [12, 20]: 20 | Plant response rating, Wheat, Spring [12, 21]: 50 | Plant response rating, Wheat, Spring [12, 22]: 65 | Plant response rating, Mustard, Wild [13, 21]: 0 | Plant response rating, Mustard, Wild [13, 22]: 0 | Plant response rating, Oat, Wild (wild oat (Avena fatua); [19]): 0 | Plant response rating, Oat, Wild (wild oat (Avena fatua); [20]): 0 | Plant response rating, Oat, Wild (wild oat (Avena fatua); [21]): 30 | Plant response rating, Oat, Wild (wild oat (Avena fatua); [22]): 70 | Plant response rating, Windgrass [14, 19]: 0 | Plant response rating, Windgrass [14, 21]: 15 | Plant response rating, Windgrass [14, 22]: 80 | Plant response rating, Wheat, Winter [15, 19]: 0 | Plant response rating, Wheat, Winter [15, 20]: 10 | Plant response rating, Wheat, Winter [15, 21]: 25 | Plant response rating, Wheat, Winter [15, 22]: 70
